Reference: ChEMBL document CHEMBL5303573, “Mapping human microbiome drug metabolism by gut bacteria and their genes” (Nature, 2019)

Legend:
[1] = The drug is tested on Providencia stuartii strain: ATCC25827 for biotransformation. The drug concentrations were measured before and after a 12-h incubation by liquid-chromatography-coupled mass spectrometry (LC–MS); conditions: 2 µM
[2] = The drug is tested on Escherichia coli strain: BW25113 for biotransformation. The drug concentrations were measured before and after a 12-h incubation by liquid-chromatography-coupled mass spectrometry (LC–MS); conditions: 2 µM
[3] = The drug is tested on Collinsella intestinalis strain: DSM13280 for biotransformation. The drug concentrations were measured before and after a 12-h incubation by liquid-chromatography-coupled mass spectrometry (LC–MS); conditions: 2 µM
[4] = bacteroides intestinalis, 12 h, 2 µM
Description: The drug is tested on Bacteroides intestinalis strain: DSM17393 for biotransformation. The drug concentrations were measured before and after a 12-h incubation by liquid-chromatography-coupled mass spectrometry (LC–MS)

[5] = The drug is tested on Bacteroides fragilis strain: ATCC43859 for biotransformation. The drug concentrations were measured before and after a 12-h incubation by liquid-chromatography-coupled mass spectrometry (LC–MS); conditions: 2 µM
[6] = The drug is tested on Coprococcus comes strain: ATCC27758 for biotransformation. The drug concentrations were measured before and after a 12-h incubation by liquid-chromatography-coupled mass spectrometry (LC–MS); type: ADME; set-up: dose 2 uM, timepoint 0 vs 12 hours; conditions: 2 µM
[7] = bacteroides thetaiotaomicron, 12 h, 2 µM
Description: The drug is tested on Bacteroides thetaiotaomicron strain: 7330 for biotransformation. The drug concentrations were measured before and after a 12-h incubation by liquid-chromatography-coupled mass spectrometry (LC–MS)

[8] = bacteroides eggerthii, 12 h, 2 µM
Description: The drug is tested on Bacteroides eggerthii strain: DSM20697 for biotransformation. The drug concentrations were measured before and after a 12-h incubation by liquid-chromatography-coupled mass spectrometry (LC–MS)

[9] = The drug is tested on Bacteroides pectinophilus strain: ATCC43243 for biotransformation. The drug concentrations were measured before and after a 12-h incubation by liquid-chromatography-coupled mass spectrometry (LC–MS); conditions: 2 µM
[10] = The drug is tested on Bacteroides dorei strain: DSM17855 for biotransformation. The drug concentrations were measured before and after a 12-h incubation by liquid-chromatography-coupled mass spectrometry (LC–MS); conditions: phocaeicola dorei, 2 µM
[11] = The drug is tested on Collinsella aerofaciens strain: ATCC25986 for biotransformation. The drug concentrations were measured before and after a 12-h incubation by liquid-chromatography-coupled mass spectrometry (LC–MS); conditions: 2 µM
[12] = The drug is tested on Clostridium sp. strain: fecal isolate for biotransformation. The drug concentrations were measured before and after a 12-h incubation by liquid-chromatography-coupled mass spectrometry (LC–MS); conditions: 2 µM
[13] = roseburia intestinalis, 12 h, 2 µM
Description: The drug is tested on Roseburia intestinalis strain: L1-82 for biotransformation. The drug concentrations were measured before and after a 12-h incubation by liquid-chromatography-coupled mass spectrometry (LC–MS)

[14] = segatella copri, 12 h, 2 µM
Description: The drug is tested on Prevotella copri strain: DSM18205 for biotransformation. The drug concentrations were measured before and after a 12-h incubation by liquid-chromatography-coupled mass spectrometry (LC–MS)

[15] = The drug is tested on Clostridium ramosum strain: DSM1402 for biotransformation. The drug concentrations were measured before and after a 12-h incubation by liquid-chromatography-coupled mass spectrometry (LC–MS); conditions: thomasclavelia ramosa, 2 µM
[16] = The drug is tested on Bifidobacterium ruminantium strain: fecal isolate for biotransformation. The drug concentrations were measured before and after a 12-h incubation by liquid-chromatography-coupled mass spectrometry (LC–MS); conditions: 2 µM
[17] = The drug is tested on Eubacterium rectale strain: ATCC33656 for biotransformation. The drug concentrations were measured before and after a 12-h incubation by liquid-chromatography-coupled mass spectrometry (LC–MS); conditions: agathobacter rectalis, 2 µM
[18] = The drug is tested on Bifidobacterium longum subsp. Infantis strain: CCUG52486 for biotransformation. The drug concentrations were measured before and after a 12-h incubation by liquid-chromatography-coupled mass spectrometry (LC–MS); conditions: 2 µM
[19] = The drug is tested on Clostridium sporogenes strain: ATCC15579 for biotransformation. The drug concentrations were measured before and after a 12-h incubation by liquid-chromatography-coupled mass spectrometry (LC–MS); conditions: 2 µM

SMILES	Bacterial Biotransformation [1]	Bacterial Biotransformation [2]	Bacterial Biotransformation [3]	Bacterial Biotransformation [4]	Bacterial Biotransformation [5]	Bacterial Biotransformation [6]	Bacterial Biotransformation [7]	Bacterial Biotransformation [8]	Bacterial Biotransformation [9]	Bacterial Biotransformation [10]	Bacterial Biotransformation [11]	Bacterial Biotransformation [12]	Bacterial Biotransformation [13]	Bacterial Biotransformation [14]	Bacterial Biotransformation [15]	Bacterial Biotransformation [16]	Bacterial Biotransformation [17]	Bacterial Biotransformation [18]	Bacterial Biotransformation [19]
COc1cc2nc(N3CCN(C(=O)C4COc5ccccc5O4)CC3)nc(N)c2cc1OC.CS(=O)(=O)O (configuration not stated) [DOXAZOSIN MESYLATE]	Compound NOT metabolized	Compound metabolized	Compound NOT metabolized	Compound NOT metabolized	Compound NOT metabolized	Compound NOT metabolized	Compound NOT metabolized	Compound NOT metabolized	Compound NOT metabolized	Compound metabolized	Compound NOT metabolized	Compound metabolized	Compound NOT metabolized	Compound metabolized	Compound NOT metabolized	–	–	–	–
Nc1nnc(-c2cccc(Cl)c2Cl)c(N)n1 [LAMOTRIGINE]	Compound NOT metabolized	Compound NOT metabolized	Compound NOT metabolized	Compound NOT metabolized	Compound NOT metabolized	Compound NOT metabolized	–	Compound NOT metabolized	Compound NOT metabolized	Compound NOT metabolized	Compound NOT metabolized	Compound NOT metabolized	Compound NOT metabolized	Compound NOT metabolized	Compound NOT metabolized	Compound NOT metabolized	Compound NOT metabolized	–	–
CC(CCc1ccccc1)NCC(O)c1ccc(O)c(C(N)=O)c1 (configuration not stated) [LABETALOL]	Compound NOT metabolized	Compound NOT metabolized	Compound NOT metabolized	Compound NOT metabolized	Compound NOT metabolized	Compound NOT metabolized	Compound NOT metabolized	Compound NOT metabolized	Compound NOT metabolized	Compound NOT metabolized	Compound NOT metabolized	Compound NOT metabolized	Compound NOT metabolized	Compound NOT metabolized	Compound NOT metabolized	–	Compound NOT metabolized	Compound NOT metabolized	Compound NOT metabolized
CN1CCC(=C2c3ccccc3CC(=O)c3sccc32)CC1.O=C(O)/C=C/C(=O)O [KETOTIFEN FUMARATE]	Compound NOT metabolized	–	Compound NOT metabolized	Compound NOT metabolized	Compound NOT metabolized	Compound NOT metabolized	Compound NOT metabolized	Compound NOT metabolized	Compound NOT metabolized	Compound NOT metabolized	Compound NOT metabolized	Compound NOT metabolized	Compound NOT metabolized	Compound NOT metabolized	Compound NOT metabolized	Compound NOT metabolized	Compound NOT metabolized	Compound NOT metabolized	Compound NOT metabolized

The remaining lines, values ahead:

Bacterial Biotransformation [1]	Bacterial Biotransformation [2]	Bacterial Biotransformation [3]	Bacterial Biotransformation [4]	Bacterial Biotransformation [5]	Bacterial Biotransformation [6]	Bacterial Biotransformation [7]	Bacterial Biotransformation [8]	Bacterial Biotransformation [9]	Bacterial Biotransformation [10]	Bacterial Biotransformation [11]	Bacterial Biotransformation [12]	Bacterial Biotransformation [13]	Bacterial Biotransformation [14]	Bacterial Biotransformation [15]	Bacterial Biotransformation [16]	Bacterial Biotransformation [17]	Bacterial Biotransformation [18]	Bacterial Biotransformation [19]	SMILES
Compound NOT metabolized	Compound NOT metabolized	Compound NOT metabolized	Compound NOT metabolized	Compound NOT metabolized	–	Compound NOT metabolized	Compound NOT metabolized	Compound NOT metabolized	Compound metabolized	–	Compound NOT metabolized	Compound NOT metabolized	Compound NOT metabolized	Compound NOT metabolized	Compound NOT metabolized	–	Compound NOT metabolized	Compound NOT metabolized	CO[C@]12C[C@@H](COC(=O)c3cncc(Br)c3)CN(C)[C@@H]1Cc1cn(C)c3cccc2c13 [NICERGOLINE]
Compound NOT metabolized	Compound NOT metabolized	Compound NOT metabolized	Compound NOT metabolized	Compound NOT metabolized	Compound NOT metabolized	Compound NOT metabolized	Compound NOT metabolized	Compound NOT metabolized	Compound NOT metabolized	Compound NOT metabolized	–	Compound NOT metabolized	Compound NOT metabolized	Compound NOT metabolized	Compound NOT metabolized	Compound NOT metabolized	Compound NOT metabolized	Compound NOT metabolized	CCN(CC)CCNC(=O)c1cc(Cl)c(N)cc1OC [METOCLOPRAMIDE]
–	Compound metabolized	Compound NOT metabolized	Compound NOT metabolized	Compound NOT metabolized	Compound NOT metabolized	Compound NOT metabolized	Compound NOT metabolized	–	Compound metabolized	Compound NOT metabolized	Compound metabolized	–	Compound NOT metabolized	Compound NOT metabolized	Compound NOT metabolized	–	Compound NOT metabolized	Compound NOT metabolized	CN1C(=O)CC(C)(c2ccccc2)C1=O (configuration not stated) [METHSUXIMIDE]
Compound NOT metabolized	Compound NOT metabolized	Compound NOT metabolized	–	Compound metabolized	Compound NOT metabolized	Compound NOT metabolized	Compound NOT metabolized	Compound NOT metabolized	–	Compound NOT metabolized	Compound NOT metabolized	–	Compound NOT metabolized	Compound NOT metabolized	Compound NOT metabolized	Compound NOT metabolized	Compound metabolized	Compound NOT metabolized	CC(C)[C@H]1CC[C@H](C(=O)N[C@H](Cc2ccccc2)C(=O)O)CC1 [NATEGLINIDE]
